According to patent US20030156970A1, “Sulphur-free lignin and derivatives thereof for reducing the formation of slime and deposits in industrial plants” (priority 2000, published 2003):

Tested on: slime and deposits in paper machine white water
Assay: Slime and deposit formation in white water tanks, same test record as example 10 (example 12, lignin plus small quantity of biocide)
Parameters: species or system bacteria
Description: The white water originated from the white water I circuit of a paper machine which produces wood-free paper with carbonate filler, used painted rejects and starch for the production of the stock and runs at a slightly alkaline pH. The white water was sampled after a re-start, before any slime combating systems were used. […] Seven tanks were filled with the white water up to the 5-litre mark, the magnetic agitators were switched on, as well as the thermostatically controlled heating systems which were set to 36° C. Weighed slime measuring boards were fully immersed in the liquid. The microbial activity in the test tanks was checked by plating out on bacterial count-Agar from the company of Merck. The additions to the slime check to be compared were diluted in a suitable way and a certain quantity was added to each test tank. After 72 hours the bacterial counts were determined again and the measuring boards covered in slime were carefully weighed. After the measurements after 72 hours the slime measur8ing boards were dried at 105° C. and again weighed in order to determine the dry weight of the stored material. The dried material was then removed from the boards and incinerated in a furnace in porcelain crucibles at 550° C. The ash was weighed back in order to measure the percentage of mineral substances in the original deposits. The whole experiment was repeated with various concentrations of the individual slime combating products.
The same test record as in example 10 was followed, however using the following products

[1] = 70 ppm active (combination 50 + 20), 72 hrs

O=[N+]([O-])C(Br)(CO)CO [bromiumnitropropane diol, 2-bromium-2-nitropropane-1,3-diol]
Ash content in deposits in % of the solids content of the control [1]: 17% | Dry weight of the deposit [1]: 1.026 g | Moist weight of the deposit [1]: 1.020 g | Solids content in deposit [1]: 12% | Solids content in deposits in % of the control (70 ppm active (combination 50 + 20), 72 hrs, control = 100): 23% | Bacterial count after 72 hrs (addition (active) 70 ppm per volume (combination 50 + 20 ppm), white water 4.7 g/l solids, start count 4.2 × 10^5): 8.1 × 10^4 CFU/ml
